Measured values reported in patent US10441562B2, “Aromatic farnesyl compound and application thereof” (INSTITUTE OF MICROBIOLOGY, CHINESE ACADEMY OF SCIENCES, priority 2015, dated 2019).

What was measured:
[1] = body weight of hyperglycemia KK-A^y mice; format: in vivo
Method: Materials: accurately weigh the 2 compounds S13 and S28 discussed in example 2, and then add 0.5% CMC-Na to make the solution of 5 mg/ml used for activity test. KK-A^y mice are purchased from Chinese Academy of Medical Sciences & Peking Union Medical College Institute of Animal Studies. Experiments are carried out after adapting to the environment (T=20-24° C., constant humidity: 50-60%, 12 hours light exposure (8:00-20:00), soundproof, free feeding and drinking) for 1 week. Glucometer is purchased from Roche.
Methods: 10 male C57 mice of 6-8 weeks of 20-22 g are used as normal control group (1). Detect the fasting glucose of male KK-A^y mice, which are 6-8 weeks with the weight of 28-32 g, and divide them into different groups according to the blood sugar level and body weight: (2) model control group, (3) which is administered by compound S13 with the dose of 1 mg/kg, (4) which is administered by compound S13 with the dose of 5 mg/kg, (5) which is administered by compound S13 with the dose of 10 mg/kg, (6) which is administered by compound S13 with the dose of 20 mg/kg, (7) which is administered by compound S28 with the dose of 1 mg/kg, (8) which is administered by compound S28 with the dose of 5 mg/kg, (9) which is administered by compound S28 with the dose of 10 mg/kg, (10) which is administered by compound S28 with the dose of 20 mg/kg, (11) which is administered by metformin with the dose of 8 g/kg, (12) which is administered by compound S13 with the dose of 2.5 mg/kg and metformin with the dose of 4 g/kg, (13) which is administered by compound S13 with the dose of 5 mg/kg and metformin with the dose of 4 g/kg, (14) which is administered by compound S28 with the dose of 2.5 mg/kg and metformin with the dose of […], (15) which is administered by compound S28 with the dose of 5 mg/kg and metformin with the dose of […]. Each group has 8 mice, and is administrated successively for 3 weeks. Model control group is given with equal amounts of 0.5% CMC-Na.
2) Effects on body weight and blood sugar: the body weight of mice are recorded at the 2th, 5th, 8th, 11th, 14th, 17th, 20th day after administration, and blood is collected from tip of tail to detect the blood sugar level (see table 10).

α-glucosidase = molecular target: T1, α-glucosidase (Saccharomyces cerevisiae, UniProt P53341); assay: α-glucosidase inhibitory activity test in vitro; format: biochemical; conditions: read-out: α-glucosidase inhibitory activity (IC50)
T1 construct: purchased Sigma Corporation G5003
T1 sequence (P53341 whole entry): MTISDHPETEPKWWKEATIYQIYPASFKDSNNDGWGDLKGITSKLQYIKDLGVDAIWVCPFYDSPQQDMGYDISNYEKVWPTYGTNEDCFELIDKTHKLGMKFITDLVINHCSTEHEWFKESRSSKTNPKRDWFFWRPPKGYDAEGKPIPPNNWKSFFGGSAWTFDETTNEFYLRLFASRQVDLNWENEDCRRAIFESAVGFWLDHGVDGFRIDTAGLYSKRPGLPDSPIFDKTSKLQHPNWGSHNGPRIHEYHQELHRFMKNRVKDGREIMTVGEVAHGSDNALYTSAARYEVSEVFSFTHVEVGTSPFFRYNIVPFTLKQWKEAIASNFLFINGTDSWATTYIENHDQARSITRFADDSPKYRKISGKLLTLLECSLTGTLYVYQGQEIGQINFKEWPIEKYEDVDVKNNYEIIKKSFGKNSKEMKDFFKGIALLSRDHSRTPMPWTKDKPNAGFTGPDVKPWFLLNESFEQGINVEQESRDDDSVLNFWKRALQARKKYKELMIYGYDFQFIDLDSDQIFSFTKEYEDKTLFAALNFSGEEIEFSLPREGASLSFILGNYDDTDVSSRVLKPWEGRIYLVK

Kunming species mice = assay: acute toxicity test of mice
Method: (§1) Materials: 20 Kunming species mice of 6-8 weeks of 20-22 g are purchased from Beijing Vital River Laboratory Animal Technology Co., Ltd.,
(§2) Accurately weigh the 2 compounds S13 and S28, and then add 0.5% CMC-Na to make the solution of 0.2 g/ml.
(§3) After being acclimatized for 3-5 days, the mice are fasted at 18:00 in the day before the experiment, free drinking. The mice are randomly divided into groups of 10 animals in each and given with medicine by intragastric administration, and 0.25 ml of drugs is given to every 10 g weight of mice, i.e. dose 5 g/kg. Mice of control group are given with 0.5% CMC-Na by intragastric administration, and 0.25 ml of solution are given to every 10 g weight of mice.
(§4) After administration, observe the general status of mice, such as appearance, behavior, response to stimulus, secretion and excretion, and record the time when abnormal phenomena happen. If death occurred, record time and observe the abnormal phenomena by autopsy.

[2] = acute toxicity test of mice; conditions: Kunming, mouse, in vivo, po, 5 g/kg
Method: as §1, §2, §3, §4

[3] = 2st day, 20 mg/kg, groups 6, 10
[4] = 5st day, 20 mg/kg, groups 6, 10
[5] = 8st day, 20 mg/kg, groups 6, 10
[6] = 11st day, 10 mg/kg, groups 5, 9
[7] = 11st day, 20 mg/kg, groups 6, 10
[8] = 14st day, 10 mg/kg, groups 5, 9
[9] = 14st day, 20 mg/kg, groups 6, 10
[10] = 17st day, 10 mg/kg, groups 5, 9
[11] = 17st day, 20 mg/kg, groups 6, 10
[12] = 20st day, 10 mg/kg, groups 5, 9
[13] = 20st day, 20 mg/kg, groups 6, 10

In the case of `CC(C)=CCC/C(C)=C/CCC1=C[C@@H](c2cc(O)ccc2O)OC1=O` [S28, (S,E)-5-(2,5-dihydroxyphenyl)-3-(4,8-dimethylnona-3,7-dien-1-yl)furan-2(5H)-one], the “effect on body weight (in words)” value [1] is reported as “litter effect on body weight”, the Body weight ([1]; 2st day, 1 mg/kg, groups 3, 7) is reported as 30.1 g and the Body weight ([1]; 2st day, 5 mg/kg, groups 4, 8) is reported as 30.3 g. It also gave a Body weight ([1]; 2st day, 10 mg/kg, groups 5, 9) of 30.3 g, a Body weight [1, 3] of 30.4 g and a Body weight ([1]; 5st day, 1 mg/kg, groups 3, 7) of 30.23 g. The Body weight ([1]; 5st day, 5 mg/kg, groups 4, 8) was 30.43 g, the Body weight ([1]; 5st day, 10 mg/kg, groups 5, 9) was 30.51 g and the Body weight [1, 4] was 30.36 g. For the same molecule, the Body weight ([1]; 8st day, 1 mg/kg, groups 3, 7) was 30.6 g, the Body weight ([1]; 8st day, 5 mg/kg, groups 4, 8) was 30.8 g and the Body weight ([1]; 8st day, 10 mg/kg, groups 5, 9) was 30.4 g. It also gave a Body weight [1, 5] of 30.2 g, a Body weight ([1]; 11st day, 1 mg/kg, groups 3, 7) of 30.8 g and a Body weight ([1]; 11st day, 5 mg/kg, groups 4, 8) of 31.3 g. For the same molecule, the Body weight [1, 6] was 31.4 g, the Body weight [1, 7] was 30.5 g and the Body weight ([1]; 14st day, 1 mg/kg, groups 3, 7) was 31.25 g. For the same molecule, the Body weight ([1]; 14st day, 5 mg/kg, groups 4, 8) was 31.76 g, the Body weight [1, 8] was 32.56 g and the Body weight [1, 9] was 30.4 g. For the same molecule, the Body weight ([1]; 17st day, 1 mg/kg, groups 3, 7) was 31.4 g, the Body weight ([1]; 17st day, 5 mg/kg, groups 4, 8) was 31.5 g and the Body weight [1, 10] was 32.6 g. It also gave a Body weight [1, 11] of 30.7 g, a Body weight ([1]; 20st day, 1 mg/kg, groups 3, 7) of 32.1 g and a Body weight ([1]; 20st day, 5 mg/kg, groups 4, 8) of 31.3 g. The Body weight [1, 12] was 32.2 g, the Body weight [1, 13] was 30.2 g and the IC50 (α-glucosidase) was 420 nM. The “abnormal phenomena by autopsy” value (Kunming species mice; mouse, in vivo) was “no obvious abnormal phenomena are found by autopsy”, the “body weight of mice after administration” value (Kunming species mice; mouse, in vivo) was “drop slightly” and the LD50 [2] was greater than 5000 mg/kg.
For `CC(C)=CCC/C(C)=C/CCC1=C[C@H](c2cc(O)ccc2O)OC1=O` [S13, (R,E)-5-(2,5-dihydroxyphenyl)-3-(4,8-dimethylnona-3,7-dien-1-yl)furan-2(5H)-one], the “effect on body weight (in words)” value [1] was “litter effect on body weight”, the Body weight ([1]; 2st day, 1 mg/kg, groups 3, 7) was 30.6 g and the Body weight ([1]; 2st day, 5 mg/kg, groups 4, 8) was 30.7 g. For the same molecule, the Body weight ([1]; 2st day, 10 mg/kg, groups 5, 9) was 30.3 g, the Body weight [1, 3] was 30.5 g and the Body weight ([1]; 5st day, 1 mg/kg, groups 3, 7) was 30.8 g. The Body weight ([1]; 5st day, 5 mg/kg, groups 4, 8) was 30.8 g, the Body weight ([1]; 5st day, 10 mg/kg, groups 5, 9) was 30.2 g and the Body weight [1, 4] was 30.3 g. For the same molecule, the Body weight ([1]; 8st day, 1 mg/kg, groups 3, 7) was 30.5 g, the Body weight ([1]; 8st day, 5 mg/kg, groups 4, 8) was 30.9 g and the Body weight ([1]; 8st day, 10 mg/kg, groups 5, 9) was 30.3 g. For the same molecule, the Body weight [1, 5] was 30.2 g, the Body weight ([1]; 11st day, 1 mg/kg, groups 3, 7) was 30.5 g and the Body weight ([1]; 11st day, 5 mg/kg, groups 4, 8) was 31.2 g. It also gave a Body weight [1, 6] of 31.5 g, a Body weight [1, 7] of 30.1 g and a Body weight ([1]; 14st day, 1 mg/kg, groups 3, 7) of 31.2 g. It also gave a Body weight ([1]; 14st day, 5 mg/kg, groups 4, 8) of 31.5 g, a Body weight [1, 8] of 32.5 g and a Body weight [1, 9] of 30.4 g. The Body weight ([1]; 17st day, 1 mg/kg, groups 3, 7) was 31.8 g, the Body weight ([1]; 17st day, 5 mg/kg, groups 4, 8) was 31.5 g and the Body weight [1, 10] was 32.1 g. It also gave a Body weight [1, 11] of 30 g, a Body weight ([1]; 20st day, 1 mg/kg, groups 3, 7) of 32.1 g and a Body weight ([1]; 20st day, 5 mg/kg, groups 4, 8) of 31.6 g. It also gave a Body weight [1, 12] of 32.5 g, a Body weight [1, 13] of 30.1 g and an IC50 (α-glucosidase) of 270 nM. The “abnormal phenomena by autopsy” value (Kunming species mice; mice, intragastric administration, dose 5 g/kg) was “no obvious abnormal phenomena are found by autopsy” and the LD50 [2] was greater than 5000 mg/kg.
